{"source": "patent US20230250436A1", "about": "“NUCLEIC ACID THAT INTERACTS WITH A RECEPTOR FOR ENDOCRINE DISRUPTING CHEMICALS AND USE THEREOF” (KUMIAI CHEMICAL INDUSTRY CO., LTD., priority 2020, published 2023)", "format_in_all_cases": "cell-based", "key": {"[1]": {"system": "juvenile hormone receptor of Drosophila melanogaster (DmMET)", "test": "Yeast reporter (β-galactosidase) assay, transformants with DmMET and DmTai", "conditions": "test substance 10 μM", "protocol": "A plasmid expressing a juvenile hormone receptor of Drosophila melanogaster (hereafter, referred to as a “DmMET plasmid”) was prepared in the same manner. At the outset, ORF of cDNA of the DmMET gene was amplified by PCR using, as a template, cDNA of Drosophila melanogaster larvae (Clontech) and the primers for DmMET: DmMET Fwd (SEQ ID NO: 21) and DmMET Rev (SEQ ID NO: 22). PCR was carried out by repeating a cycle of 98° C. for 10 seconds, 55° C. for 30 seconds, and 68° C. for 1.5 minutes 25 times.\n(§1) Subsequently, a reporter plasmid prepared by inserting the nucleotide sequence shown in SEQ ID NO: 2 into a yeast comprising the DampaMET plasmid and the DampaSRC plasmid introduced thereinto by the lithium acetate method. Thus, Yeast 1 of Invention was obtained. In the same manner, Yeasts 2 to 38 of Invention each comprising the response element according to the present invention and Control yeasts 1 to 9 shown in Table 3 were prepared.\n(§2) With the use of the Yeast 1 of Invention, reporter activity to methyl farnesoate as a juvenile hormone substance was measured. At the outset, the Yeast 1 of Invention was subjected to pre-culture at 30° C. for 18 hours using the pre-culture medium shown in Table 1 until the turbidity (O.D. 595) of the pre-culture medium reached approximately 0.1. The solution of the pre-cultured cells (10 μl) and 1 μl of the solution of methyl farnesoate diluted to various concentrations with dimethyl sulfoxide (DMSO) were mixed with 90 μl of the main culture solution shown in Table 4 in a 96-well plate, and the mixture was subjected to static culture at 30° C. for 18 hours to prepare a reaction solution. The resultant was designated as a test group.\n(§3) A reaction solution prepared with the addition of 1 μl of DMSO instead of a diluted methyl farnesoate solution was designated as a control group. Fractions of 10 μl each were collected from the reaction solutions and dispensed into each well of another 96-well plate. Thereafter, 100 μl of an assay reagent comprising a lytic solution (Z buffer: 60 mM Na2HPO4, 40 mM NaH2PO4, 1 mM MgCl2, 10 mM KCl, 2 mM dithiothreitol, 0.20% N-lauroylsarcosine sodium salt) mixed with 1 mg/ml ONPG (orthonitrophenylgalactopyranoside) was dispensed into each well, and the reaction was allowed to proceed at 37° C. for 30 minutes. Thereafter, the absorbance (O.D. 405) and the turbidity (O.D. 595) of the reaction solutions were assayed at the wavelength of 405 nm using a microplate reader (tradename: iMark microplate reader, Bio-Rad Laboratories). The increase of induction was calculated in accordance with the following formula.\n(§4) The increase of induction is described in Ito-Harashima S et al., FEBS Open Bio., 7 (7): pp. 995-1008, 2017. When the increase of induction is positive, the transformant is determined to have reporter activity to the substance tested. The test was performed once or repeated 3 times, 5 times, or 15 times, and the average increase of induction was calculated. The control yeast 1 was treated in the same manner and reporter activity was compared.\n(§5) With the use of the Yeast 4 and the Yeast 8 of the present Invention, reporter activity to sex hormones; i.e., 17β-estradiol and testosterone, insect juvenile hormones; i.e., juvenile hormone III, and chemical substances suspected of having endocrine disrupting actions, such as 4-nonyl phenol, bisphenol A, 1,1,1-trichloro-2,2-bis(4-chlorophenyl)ethane (DDT), 2,2-bis(4-chlorophenyl)-1,1-dichloroethylene (DDE), and dieldrin, was assayed. The test was performed in accordance with Test Example 1. All the test substances were treated at 10 μM. For comparison, reporter activity to compounds was assayed using the control yeast 5 and the control yeast 6 comprising a known juvenile hormone receptor response element (i.e., the JH response element of Drosophila melanogaster) integrated therein."}, "[2]": {"system": "juvenile hormone receptor of Daphnia magna (DampaMET)", "test": "Yeast reporter (β-galactosidase) assay, transformants with DampaMET and DampaSRC", "set-up": "key to Increase in induction: increase of induction; positive value = reporter activity to substance", "protocol": "as §1, §2, §3, §4\nIn the same manner as in Test Example 1, the Yeasts 2, 3, 4, 5, 6, 7, 9, 10, 11, 12, 13, 14, 15, 16, 17, 18, 19, and 20 of Invention were subjected to assays of reporter activity to methyl farnesoate. The test was performed in accordance with Test Example 1, and reporter activity of the yeasts indicated above was compared with that of the control yeasts 2, 3, and 4.\nWith the use of the control yeast 7 comprising a different nucleotide sequence of the C-box (CACGCG) in the response element, the control yeast 8 comprising a different nucleotide sequence of the E-box (CACGTG), and the control yeast 9 comprising different nucleotide sequences of the C-box and the E-box from the relevant nucleotide sequences of the Yeast 4 of Invention, the influence of a core sequence on reporter activity to methyl farnesoate was evaluated. The test was performed in accordance with Test Example 1.\nas §5, with “For comparison, reporter activity to compounds was assayed using the control yeast 5 and the control yeast 6 comprising a known juvenile hormone receptor response element (i.e., the JH response element of Drosophila melanogaster) integrated therein.” left out"}, "[3]": {"system": "juvenile hormone receptor of Daphnia magna (DampaMET)", "test": "Yeast reporter (β-galactosidase) assay, Control yeast 5 with DampaMET, DmTai and DmJHRR", "conditions": "Control yeast 5 (DmJHRR x3, DampaMET, DmTai), test substance 10 μM", "protocol": "For further comparison, a plasmid comprising a region including the juvenile hormone response element of the Kr-hi gene of Drosophila melanogaster (DmJHRR) inserted thereinto was prepared. DmJHRR is described in He Q et al., J. Biol. Chem., 289 (40), pp. 27874-27885, 2014. A plasmid comprising 3 consecutive repeats of the DmJHRR sequence inserted thereinto was prepared in accordance with the method described above, except that oligo DNA comprising the DmJHRR sequence (SEQ ID NO: 15) was used instead of the oligo DNA shown in SEQ ID NO: 3 and oligo DNA partially complementary to SEQ ID NO: 15 (SEQ ID NO: 16) was used instead of the oligo DNA shown in SEQ ID NO: 4.\nas §1, §2, §3, §4\nas §5, with “For comparison, reporter activity to compounds was assayed using the control yeast 5 and the control yeast 6 comprising a known juvenile hormone receptor response element (i.e., the JH response element of Drosophila melanogaster) integrated therein.” left out"}, "[4]": {"system": "juvenile hormone receptor of Daphnia magna (DampaMET)", "test": "Yeast reporter assay for antagonist activity in the presence of 10 nM methyl farnesoate", "conditions": "Yeast 4 of Invention; test substance 10 μM in the presence of 10 nM methyl farnesoate; 0 = group treated with 10 nM methyl farnesoate", "protocol": "as §2\nA reaction solution prepared with the addition of 1 μl of DMSO instead of a diluted methyl farnesoate solution was designated as a control group. Fractions of 10 μl each were collected from the reaction solutions and dispensed into each well of another 96-well plate. […] Thereafter, the absorbance (O.D. 405) and the turbidity (O.D. 595) of the reaction solutions were assayed at the wavelength of 405 nm using a microplate reader (tradename: iMark microplate reader, Bio-Rad Laboratories). The increase of induction was calculated in accordance with the following formula.\nas §4, with “The control yeast 1 was treated in the same manner and reporter activity was compared.” left out\nWith the use of the yeast 4 of the present invention, antagonist activity of juvenile hormone receptors to endrin, aldrin, and dieldrin was evaluated at 10 μM. […]"}, "[5]": {"conditions": "Yeast 8 of Invention (SEQ ID NO: 2 x4, DmMET, DmTai)"}, "[6]": {"conditions": "Yeast 4 of Invention (SEQ ID NO: 2 x4, DampaMET, DampaSRC), test substance 10 μM"}, "[7]": {"conditions": "Control yeast 6 (DmJHRR x3, DmMET, DmTai)"}, "[8]": {"conditions": "Yeast 4 of Invention (SEQ ID NO: 2 x4), test substance 100 μM"}}}
{"smiles": "CCCCCCCCCc1ccc(O)cc1", "note": "[4-nonyl phenol]", "values": [{"measurement": "Increase in induction", "setting": "[1]; [5]", "result": 1.81}, {"measurement": "Increase in induction", "setting": "[2]; [6]", "result": 2.16}]}
{"smiles": "C[C@]12CC[C@@H]3c4ccc(O)cc4CC[C@H]3[C@@H]1CC[C@@H]2O", "note": "[17β-estradiol]", "values": [{"measurement": "Increase in induction", "setting": "[3]", "result": "−0.14"}, {"measurement": "Increase in induction", "setting": "[1]; [7]", "result": "−0.29"}, {"measurement": "Increase in induction", "setting": "[1]; [5]", "result": 1.01}, {"measurement": "Increase in induction", "setting": "[2]; [6]", "result": 1.97}]}
{"smiles": "ClC1=C(Cl)C2(Cl)C3C4C=CC(C4)C3C1(Cl)C2(Cl)Cl", "note": "(stereo not shown) [Aldrin, aldrin]", "values": [{"measurement": "Increase in induction (antagonist activity)", "setting": "[4]", "result": "−9.02"}]}
{"smiles": "CC(C)OC(=O)N[C@H](C(=O)N[C@H](C)c1nc2ccc(F)cc2s1)C(C)C", "note": "[Benthiavalicarb isopropyl, benthiavalicarb isopropyl]", "values": [{"measurement": "Increase in induction", "setting": "[2]; [8]", "result": "−0.37"}]}
{"smiles": "CC(C)(c1ccc(O)cc1)c1ccc(O)cc1", "note": "[Bisphenol A, bisphenol A]", "values": [{"measurement": "Increase in induction", "setting": "[3]", "result": "−0.38"}, {"measurement": "Increase in induction", "setting": "[1]; [7]", "result": "−0.23"}, {"measurement": "Increase in induction", "setting": "[1]; [5]", "result": 0.52}, {"measurement": "Increase in induction", "setting": "[2]; [6]", "result": 1.14}]}
{"smiles": "ClC(Cl)=C(c1ccc(Cl)cc1)c1ccc(Cl)cc1", "note": "[DDE, 2,2-bis(4-chlorophenyl)-1,1-dichloroethylene]", "values": [{"measurement": "Increase in induction", "setting": "[3]", "result": "−0.08"}, {"measurement": "Increase in induction", "setting": "[1]; [7]", "result": "−0.19"}, {"measurement": "Increase in induction", "setting": "[1]; [5]", "result": 1.23}, {"measurement": "Increase in induction", "setting": "[2]; [6]", "result": 2.15}]}
{"smiles": "Clc1ccc(C(c2ccc(Cl)cc2)C(Cl)(Cl)Cl)cc1", "note": "[DDT, 1,1,1-trichloro-2,2-bis(4-chlorophenyl)ethane]", "values": [{"measurement": "Increase in induction", "setting": "[3]", "result": "−0.07"}, {"measurement": "Increase in induction", "setting": "[1]; [7]", "result": "−0.24"}, {"measurement": "Increase in induction", "setting": "[1]; [5]", "result": 0.37}, {"measurement": "Increase in induction", "setting": "[2]; [6]", "result": 0.65}]}
{"smiles": "ClC1=C(Cl)[C@]2(Cl)[C@@H]3[C@@H]4C[C@@H]([C@H]5O[C@@H]45)[C@@H]3[C@@]1(Cl)C2(Cl)Cl", "note": "[Dieldrin, dieldrin]", "values": [{"measurement": "Increase in induction", "setting": "[3]", "result": 0.00}, {"measurement": "Increase in induction (antagonist activity)", "setting": "[4]", "result": "−12.46"}, {"measurement": "Increase in induction", "setting": "[1]; [7]", "result": "−0.02"}, {"measurement": "Increase in induction", "setting": "[1]; [5]", "result": 0.89}, {"measurement": "Increase in induction", "setting": "[2]; [6]", "result": 3.85}]}
{"smiles": "ClC1=C(Cl)C2(Cl)C3C4CC(C5OC45)C3C1(Cl)C2(Cl)Cl", "note": "(stereo not shown) [Endrin, endrin]", "values": [{"measurement": "Increase in induction (antagonist activity)", "setting": "[4]", "result": "−0.03"}]}
{"smiles": "COc1ccc(-n2c(=O)c(C(=O)C3C(=O)CCCC3=O)nc3c(Cl)cccc32)cc1", "note": "[Fenquinotrione, fenquinotrione]", "values": [{"measurement": "Increase in induction", "setting": "[2]; [8]", "result": "−0.24"}]}
{"smiles": "COC(=O)/C=C(\\C)CC/C=C(\\C)CC[C@H]1OC1(C)C", "note": "[Juvenile hormone III, juvenile hormone III]", "values": [{"measurement": "Increase in induction", "setting": "[3]", "result": 0.41}, {"measurement": "Increase in induction", "setting": "[3]; listed as juvenile hormone III", "result": "induced"}, {"measurement": "Increase in induction", "setting": "[1]; [7]", "result": 0.58}, {"measurement": "Increase in induction", "setting": "[1]; Control yeast 6 (DmJHRR x3, DmMET, DmTai), listed as juvenile hormone III", "result": "induced"}, {"measurement": "Increase in induction", "setting": "[1]; [5]", "result": 1.45}, {"measurement": "Increase in induction", "setting": "[2]; [6]", "result": 6.20}]}
{"smiles": "CC#Cc1cc(C)nc(Nc2ccccc2)n1", "note": "[Mepanipyrim, mepanipyrim]", "values": [{"measurement": "Increase in induction", "setting": "[2]; [8]", "result": "−0.76"}]}
{"smiles": "COC(=O)NCc1cc(/C(C)=N/OCc2cccc(C)n2)ccc1Cl", "note": "[Pyribencarb, pyribencarb]", "values": [{"measurement": "Increase in induction", "setting": "[2]; [8]", "result": "−0.24"}]}
{"smiles": "Cn1nc(C(F)(F)F)c(CS(=O)(=O)C2=NOC(C)(C)C2)c1OC(F)F", "note": "[Pyroxasulfone, pyroxasulfone]", "values": [{"measurement": "Increase in induction", "setting": "[2]; [8]", "result": "−0.50"}]}
{"smiles": "C[C@]12CC[C@H]3[C@@H](CCC4=CC(=O)CC[C@@]43C)[C@@H]1CC[C@@H]2O", "note": "[Testosterone, testosterone]", "values": [{"measurement": "Increase in induction", "setting": "[3]", "result": "−0.02"}, {"measurement": "Increase in induction", "setting": "[1]; [7]", "result": "−0.22"}, {"measurement": "Increase in induction", "setting": "[1]; [5]", "result": 0.98}, {"measurement": "Increase in induction", "setting": "[2]; [6]", "result": 1.78}]}
